According to patent publication US5064637A, “Substituted sulfonamide derivatives which inhibit allergic reactions” (Board of Regents, The University of Texas System, priority 1989, dated 1991):

Legend:
[1] = tested on: IgG to SMX; assay: Example 1: inhibition of IgG binding, ELISA, serum preincubated overnight with inhibitor; parameters: species or system human; conditions: for Reduction in percent binding: 20 microliter of 10 mg/ml inhibitor to 180 microliter serum, overnight; for inhibition of IgG binding (in words): serum dilutions 1:40, 1:80, 1:160
Description: This experiment was performed to determine the amount of binding inhibition achieved with various inhibitory agents. […] The experiments were performed in 96-well microtiter plates having 8 rows
designated A-H, and 12 columns designated 1-12. Each well of the microtiter plate was given a designation in accordance with the above grid system. All samples were diluted in phosphate buffered saline (PBS) to the designated dilution factor. The serum dilution levels used in this study were 1:40, 1:80 and 1:160, v/v.
A sample of each serum dilution was preincubated overnight with a IgG binding inhibitor selected from Table 2. A 2o-lambda (mioroliter) volume from a lo mg/ml solution of the selected inhibitor was added to a 180 lambda volume of the particular serum sample.
One hundred milligrams (I00 mg) of each of the listed compounds was weighed out and added to a 10 ml volume of 100% PBS so as to achieve a final concentration of 10 mg/ml by weight of the inhibitor.
In accordance with the aforedescribed system, the wells at Row A, columns 1 and 2 of the microtiter plate, received 100 microliters of phosphate buffered saline as a blank. Row A, columns 3 and 4, received normal serum diluted 1:40 in PBS, and served as a negative control. Row A, columns 5 and 6 received -00 microliters of a positive serum (i.e., serum sample positive for IgG to SMX) diluted -:40. Row A, columns 7 and 8, received positive serum diluted at 1:80. Similarly, Row A, columns 9 and 10, received 100 microliters positive serum diluted at 1:160. […] The completed microtiter plate consisted of the following sample distribution (see Table 3).
The present invention was tested using a modified ELISA assay. The specific ELISA used employs the following reagents, standards and antibodies.

[2] = tested on: IgG to SMX; assay: Example 3: inhibition studies, ELISA, serum preincubated overnight with inhibitor; type: binding, human; conditions: serum 1:40
Description: This study was conducted to confirm results on binding inhibition obtained in Example 2. Two positive serums (i.e., positive for IgG to SMX) were employed, including the positive serum used in Examples 1 and 2. PBS (phosphate buffered saline) and a normal serum were also tested in this study.
All serum used were at a 1:40 final dilution. Serum was diluted in PBS.
Several binding inhibitors at various dilutions were used. The particular inhibitors and the dilutions thereof examined appear in Table 8, along with their numerical designations.
Positive serum samples were first preincubated overnight with 50 microliter of the numerically designated inhibitors (10 mg/ml inhibitor solution - See Example I).
A standard ELISA assay was conducted using a 96 well microtiter plate as described for Example I. Row A, wells 3 and 4, received normal serum diluted 1:40 in PBS. Other wells received 10 microliter of positive serum A (Row A, well 5 through Row F, well 6) or positive serum B (Row F, well 7 through Row H, well 6) at a 1:40 dilution in PBS.
That percent binding inhibition obtained for each sample appears at Table 10.

[3] = tested on: Ig to SMX; assay: Hapten inhibition of Ig binding to SMX-HSA (RAST for IgE, ELISA for IgG, IgA, IgM); parameters: species or system human; conditions: free inhibitor, specificity check
Description: SMX-HSA was used in radioallergoasorbent test (RAST) assays for IgE and ELISA assays for IgG, IgA, and IgM.

[4] = tested on: IgE to SM (N^4 -SMX determinants); conditions: cited from earlier work
[5] = tested on: IgG to SMX; assay: Example 2: hapten inhibition of IgG binding, ELISA, no preincubation; parameters: species or system human; conditions: final serum dilution 1:80
Description: The assay was set up using a 96 well microtiter plate. None of the serum samples were preincubated with inhibitor. Serum used was positive (+) for IgG to SMX, and was used at a final dilution of […] for all wells.
A variety of binding inhibitors were employed at varying concentrations.
A 50 microliter volume of each numerically designated inhibitor was added each well of the plate. A 50 microliter volume of serum (1:40 dilution) positive to IgG to SMX was then added to each well. The final dilution of serum in each was then 1:80.
The microtiter plate was then shaken slightly to mix the contents of each well and then the standard ELISA assay was performed. The plate was then allowed to incubate for 2 hours at room temperature. The plates were then washed and the OD readings taken for each well.
Percent inhibition was then calculated for each sample on the basis of decrease in OD.

Cc1cc(NS(=O)(=O)c2ccc(N=Nc3cc(CC(N)C(=O)O)ccc3O)cc2)no1 (centres unmarked) [Inhibitor 3]
Reduction in percent binding ([1]; serum dilution 1:40): 28%
Reduction in percent binding ([1]; serum dilution 1:80): 50%
Reduction in percent binding ([1]; serum dilution 1:160): 42%
% Reduction in OD ([2]; inhibitor 0.1 mg/ml (Table 8)): 32%

CC1(C)SC(C(NC(=O)Cc2ccccc2)C(=O)NCc2ccccc2)NC1C(=O)O (centres unmarked) [Inhibitor 28]
% Reduction in OD ([2]; inhibitor 10 mg/ml (Table 8), serum A or B not stated): 0%

Cc1cc(NS(=O)(=O)c2ccc(N)cc2)no1 [SMX, Sulfamethoxazole, reference compound]
inhibition of antibody binding to SMX-HSA (in words) [3]: also inhibited binding, but were usually less efficient
inhibition of IgE binding of one highly reactive serum (in words) [4]: significantly inhibited

COC(=O)C(N)Cc1ccc(O)c(N=Nc2ccc(S(=O)(=O)Nc3cc(C)on3)cc2)c1 (centres unmarked) [SMX-Tyrosine Methyl ester]
inhibition of IgG binding (in words) [1]: considerable inhibition at the 1:40 serum dilution only
% Inhibition ([5]; inhibitor 10 mg/ml): 32%

Cc1cc(NS(=O)(=O)c2ccc(N=Nc3cc(CC(N)C(=O)O)ccc3O)cc2)no1 (centres unmarked) [SMX-Tyrosine]
inhibition of IgG binding (in words) [1]: significantly inhibit binding
% Inhibition ([5]; inhibitor 0.1 mg/ml): 51%
% Inhibition ([5]; inhibitor 0.3 mg/ml): 54%
% Inhibition ([5]; inhibitor 1 mg/ml): 57%
% Inhibition ([5]; inhibitor 3 mg/ml): 70%
% Inhibition ([5]; inhibitor 10 mg/ml): 59%

COc1cc(Cc2cnc(N)nc2N)cc(OC)c1OC [Trimethoprim]
inhibition of IgE binding of one highly reactive serum (in words) [4]: not

Cc1ccnc(NS(=O)(=O)c2ccc(N)cc2)n1 [sulfamerazine]
inhibition of IgE binding of one highly reactive serum (in words) [4]: significantly inhibited

Cc1nnc(NS(=O)(=O)c2ccc(N)cc2)s1 [sulfamethizole]
inhibition of IgE binding of one highly reactive serum (in words) [4]: significantly inhibited

Nc1ccc(S(=O)(=O)O)cc1 [sulfanilic acid]
inhibition of IgE binding of one highly reactive serum (in words) [4]: not

N^4 -sulfamethoxazoyl-L-histidine [SMX-Histidine]
inhibition of antibody binding to SMX-HSA (in words) ([3]; listed as N^4 -sulfamethoxazoyl histidine): among the most active
inhibition of antibody binding to SMX-HSA (in words) ([3]; listed as SMX-HD): inhibition of binding
inhibition of IgG binding (in words) [1]: significant reduction in binding at the 1:80 and I:160 serum dilution, but none at the 1:40 dilution
% Inhibition ([5]; inhibitor 10 mg/ml): 54%

N^4 -sulfamethoxazoyl-poly-L-tyrosine [SMX-poly-L-tyrosine]
inhibition of IgG binding (in words) [1]: significantly inhibit binding
% Inhibition ([5]; inhibitor 0.1 mg/ml): 0%
% Inhibition ([5]; inhibitor 0.3 mg/ml): 2%
% Inhibition ([5]; inhibitor 1 mg/ml): 24%
% Inhibition ([5]; inhibitor 3 mg/ml): 46%
% Inhibition ([5]; inhibitor 10 mg/ml): 50%

SMX-Imidazole
% Inhibition ([5]; inhibitor 10 mg/ml): 61%

SMX-Lysine
% Inhibition ([5]; inhibitor 10 mg/ml): 51%

SMX-Tryptophan
% Inhibition ([5]; inhibitor 10 mg/ml): 52%

Sulfamerazine-Histidine
% Inhibition ([5]; inhibitor 10 mg/ml): 35%

Sulfamethizole-histidine [Sulfamethazole-histidine]
% Inhibition ([5]; inhibitor 10 mg/ml): 7%

Sulfanilic-Histidine
% Inhibition ([5]; inhibitor 10 mg/ml): 60%
